Active and inactive are the calls of the source. The rule behind the calls is not given here.
How the values were obtained:
DNA topoisomerase II [1] = biological target: T1, DNA topoisomerase II (Homo sapiens, UniProt P11388+Q02880); assay: Inhibition of topoisomerase 2 in human HepG2 cells assessed as reduction in cell growth measured after 72 hrs by MTT assay; type: cell-based
DNA topoisomerase II [2] = biological target: T1, DNA topoisomerase II; assay: Inhibition of topoisomerase 2 in human MCF7 cells assessed as reduction in cell growth measured after 72 hrs by MTT assay; type: cell-based
DNA topoisomerase II [3] = biological target: T1, DNA topoisomerase II; assay: Inhibition of topoisomerase 2 in human MDA-MB-231 cells assessed as reduction in cell growth measured after 72 hrs by MTT assay; type: cell-based
DNA topoisomerase II [4] = biological target: T1, DNA topoisomerase II; assay: Inhibition of topoisomerase 2 in human A549 cells assessed as reduction in cell growth measured after 72 hrs by MTT assay; type: cell-based
L02 = assay: Cytotoxicity against human L02 cells assessed as inhibition of cell growth measured after 72 hrs by MTT assay; type: cell-based; conditions: L02, 72 h
DNA topoisomerase II [5] = biological target: T1, DNA topoisomerase II; assay: Inhibition of topoisomerase 2 in human CNE1 cells assessed as reduction in cell growth measured after 72 hrs by MTT assay; type: cell-based
DNA topoisomerase II [6] = biological target: T1, DNA topoisomerase II; assay: Inhibition of topoisomerase 2 in human HeLa cells assessed as reduction in cell growth measured after 72 hrs by MTT assay; type: cell-based
HepG2 [7] = assay: Induction of apoptosis in human HepG2 cells assessed as apoptotic cells at 32 uM measured after 48 hrs by Annexin V-APC staining based flow cytometry (reference value: 5.37%); type: functional
HepG2 [8] = assay: Induction of apoptosis in human HepG2 cells measured after 48 hrs by Annexin V-APC staining based flow cytometry; type: functional, cell-based
HepG2 [9] = assay: Induction of apoptosis in human HepG2 cells assessed as apoptotic cells at 8 uM measured after 48 hrs by Annexin V-APC staining based flow cytometry (reference value: 5.37%); type: functional
HepG2 [10] = assay: Induction of apoptosis in human HepG2 cells assessed as cell shrinkage at 4 to 16 uM measured after 48 hrs by Hoechst 33342 staining based fluorescence microscopic analysis; type: functional
HepG2 [11] = assay: Induction of apoptosis in human HepG2 cells assessed as formation of granular apoptotic body formation at 4 to 16 uM measured after 48 hrs by Hoechst 33342 staining based fluorescence microscopic analysis; type: functional, cell-based
HepG2 [12] = assay: Induction of apoptosis in human HepG2 cells assessed as apoptotic cells at 16 uM measured after 48 hrs by Annexin V-APC staining based flow cytometry (reference value: 5.37%); type: functional
HepG2 [13] = assay: Induction of morphological changes in human HepG2 cells assessed as nuclear deformation at 2 to 16 uM by confocal microscopic analysis; type: functional, cell-based
HepG2 [14] = assay: Induction of apoptosis in human HepG2 cells assessed as apoptotic cells at 4 uM measured after 48 hrs by Annexin V-APC staining based flow cytometry (reference value: 5.37%); type: functional
[15] = Drug uptake in nucleus of human HepG2 cells at 2 to 16 uM by confocal microscopic analysis; type: ADME, subcellular; conditions: hepg2, 16 µM
HepG2 [16] = assay: Induction of morphological changes in human HepG2 cells assessed as nuclear shrinkage at 2 to 16 uM by confocal microscopic analysis; type: functional, cell-based
HepG2 [17] = assay: Induction of morphological changes in human HepG2 cells assessed as appearance of foamy nucleus at 2 to 16 uM by confocal microscopic analysis; type: functional, cell-based
[18] = Drug uptake in cytoplasm of human HepG2 cells at 2 to 16 uM by confocal microscopic analysis; type: ADME, subcellular; conditions: hepg2, 16 µM

SMILES | IC50 (DNA topoisomerase II [1]) | IC50 (DNA topoisomerase II [2]) | IC50 (DNA topoisomerase II [3]) | IC50 (DNA topoisomerase II [4]) | IC50 (L02) | IC50 (DNA topoisomerase II [5]) | IC50 (DNA topoisomerase II [6]) | Activity (HepG2 [7]) | Activity (HepG2 [8]) | Activity (HepG2 [9]) | Activity (HepG2 [10]) | Activity (HepG2 [11]) | Activity (HepG2 [12]) | Activity (HepG2 [13]) | Activity (HepG2 [14]) | Drug uptake [15] | Activity (HepG2 [16]) | Activity (HepG2 [17]) | Drug uptake [18]
COc1cccc2c1C(=O)c1c(O)c3c(c(O)c1C2=O)C[C@@](O)(C(=O)CO)C[C@@H]3O[C@H]1C[C@H](N)[C@H](O)[C@H](C)O1 [DOXORUBICIN] | 2.6 µM | 1.5 µM | 3.8 µM | 2.3 µM | 3.5 µM | 1.2 µM | 3.3 µM | – | – | – | – | – | – | – | – | – | – | – | –
O=C1c2ccccc2C(=O)c2c(O)c(C(O)c3cc(Br)cs3)cc(O)c21 (centres undefined) | 23.9 µM | 17.5 µM | 33.3 µM | 41.5 µM | > 50 µM | 19.7 µM | 18.4 µM | – | – | – | – | – | – | – | – | – | – | – | –
O=C1c2ccccc2C(=O)c2c(O)c(C(O)c3ccc(Cl)cc3Cl)cc(O)c21 (centres undefined) | 12.5 µM | 28.4 µM | 34.6 µM | 17.8 µM | > 50 µM | 12.7 µM | 18.9 µM | 40.13% | Dose-dependent effect | 11.56% | Active | Active | 32.87% | Active | 7.38% | Active | Active | Active | Active
COc1ccc(C(O)c2cc(O)c3c(c2O)C(=O)c2ccccc2C3=O)cc1Br (centres undefined) | 12.8 µM | 45.6 µM | 43.7 µM | 24.1 µM | > 50 µM | 16.7 µM | 29.8 µM | – | – | – | – | – | – | – | – | – | – | – | –
N#Cc1ccc(C(O)c2cc(O)c3c(c2O)C(=O)c2ccccc2C3=O)cc1 (centres undefined) | 12.8 µM | 28.6 µM | 26.9 µM | 17.6 µM | > 50 µM | 12.6 µM | 14.9 µM | – | – | – | – | – | – | – | – | – | – | – | –
O=C1c2ccccc2C(=O)c2c(O)c(C(c3ccsc3)N(CCCl)CCCl)cc(O)c21 (centres undefined) | 13.7 µM | 22.5 µM | 22.4 µM | 21.9 µM | 35.4 µM | 23.1 µM | 19.3 µM | – | – | – | – | – | – | – | – | – | – | – | –
CSc1ccc(C(O)c2cc(O)c3c(c2O)C(=O)c2ccccc2C3=O)cc1 (centres undefined) | > 50 µM | > 50 µM | > 50 µM | > 50 µM | > 50 µM | > 50 µM | > 50 µM | – | – | – | – | – | – | – | – | – | – | – | –
O=C1c2ccccc2C(=O)c2c(O)c(C(c3ccc(OC(F)(F)F)cc3)N(CCCl)CCCl)cc(O)c21 (centres undefined) | > 50 µM | 42.8 µM | 34.8 µM | > 50 µM | > 50 µM | 11.3 µM | > 50 µM | – | – | – | – | – | – | – | – | – | – | – | –
O=C1c2ccccc2C(=O)c2c(O)c(C(O)c3ccc(C(F)(F)F)cc3)cc(O)c21 (centres undefined) | 14.9 µM | 27.4 µM | 38.1 µM | 23.3 µM | > 50 µM | 13.7 µM | 20.7 µM | – | – | – | – | – | – | – | – | – | – | – | –
CCOc1ccc(C(O)c2cc(O)c3c(c2O)C(=O)c2ccccc2C3=O)cc1 (centres undefined) | > 50 µM | > 50 µM | > 50 µM | > 50 µM | > 50 µM | > 50 µM | > 50 µM | – | – | – | – | – | – | – | – | – | – | – | –
CSc1ccc(C(c2cc(O)c3c(c2O)C(=O)c2ccccc2C3=O)N(CCCl)CCCl)cc1 (centres undefined) | 20.6 µM | 39.3 µM | 41.4 µM | > 50 µM | > 50 µM | 15.4 µM | > 50 µM | – | – | – | – | – | – | – | – | – | – | – | –
O=C1c2ccccc2C(=O)c2c(O)c(C(O)c3ccc(OC(F)(F)F)cc3)cc(O)c21 (centres undefined) | 26.5 µM | 30.5 µM | 39.5 µM | 22.3 µM | > 50 µM | 13.7 µM | 32 µM | – | – | – | – | – | – | – | – | – | – | – | –
O=C1c2ccccc2C(=O)c2c(O)c(C(O)c3ccsc3)cc(O)c21 (centres undefined) | > 50 µM | > 50 µM | > 50 µM | > 50 µM | > 50 µM | > 50 µM | > 50 µM | – | – | – | – | – | – | – | – | – | – | – | –
O=C1c2ccccc2C(=O)c2c(O)ccc(O)c21 [QUINIZARIN] | > 200 µM | > 200 µM | > 200 µM | > 200 µM | > 200 µM | > 200 µM | > 200 µM | – | – | – | – | – | – | – | – | – | – | – | –
O=C1c2ccccc2C(=O)c2c(O)c(C(O)c3ccc(Br)s3)cc(O)c21 (centres undefined) | 25.1 µM | 39.4 µM | 43.9 µM | 23 µM | > 50 µM | 14.4 µM | 48.1 µM | – | – | – | – | – | – | – | – | – | – | – | –
O=C1c2ccccc2C(=O)c2c(O)c(C(O)c3ccc(Cl)s3)cc(O)c21 (centres undefined) | 24.4 µM | 29.3 µM | 47.2 µM | 33 µM | > 50 µM | 17.75 µM | 21.2 µM | – | – | – | – | – | – | – | – | – | – | – | –
O=C1c2ccccc2C(=O)c2c(O)c(C(c3ccc(C(F)(F)F)cc3)N(CCCl)CCCl)cc(O)c21 (centres undefined) | > 50 µM | > 50 µM | > 50 µM | > 50 µM | > 50 µM | 16.1 µM | > 50 µM | – | – | – | – | – | – | – | – | – | – | – | –
Cc1ccc(C(O)c2cc(O)c3c(c2O)C(=O)c2ccccc2C3=O)s1 (centres undefined) | 44.7 µM | > 50 µM | > 50 µM | 35.8 µM | > 50 µM | 23.6 µM | 42.3 µM | – | – | – | – | – | – | – | – | – | – | – | –
COc1ccc(C(O)c2cc(O)c3c(c2O)C(=O)c2ccccc2C3=O)cc1OC (centres undefined) | > 50 µM | > 50 µM | > 50 µM | > 50 µM | > 50 µM | > 50 µM | > 50 µM | – | – | – | – | – | – | – | – | – | – | – | –
O=C1c2ccccc2C(=O)c2c(O)c(C(O)c3cccs3)cc(O)c21 (centres undefined) | 37.9 µM | > 50 µM | 45 µM | 28.9 µM | > 50 µM | 16.6 µM | 36.2 µM | – | – | – | – | – | – | – | – | – | – | – | –
CC(C)=CC[C@@H](O)C1=CC(=O)c2c(O)ccc(O)c2C1=O [SHIKONIN] | 6.2 µM | 5.7 µM | 7.8 µM | 16 µM | 13 µM | 12.5 µM | 6.7 µM | – | – | – | – | – | – | – | – | – | – | – | –
